PubChem BioAssay (NCI)
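Method: 48-hour compound exposure of cells in 96-well plates, five concentrations, linear interpolation of endpoints. GI50: concentration for 50% inhibition of growth. TGI denotes the concentration required for complete inhibition of growth.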

Key:
Assay in all cases: growth of human tumour cells (NCI), 48 h
A549 NSCLC = tested on: A549 NSCLC
MCF7 breast = tested on: MCF7 breast
EKVX NSCLC = tested on: EKVX NSCLC
HT29 colon = tested on: HT29 colon
SR leukemia = tested on: SR leukemia
OVCAR-8 ovarian = tested on: OVCAR-8 ovarian
NCI-H522 lung = tested on: NCI-H522 lung
786-0 renal = tested on: 786-0 renal
NCI-H460 lung = tested on: NCI-H460 lung
HCC-2998 colon = tested on: HCC-2998 colon

## COC(=O)C1C2CCCN2OC1(C)CO (stereo unspecified)
A549 NSCLC
  TGI: > 100 µM
MCF7 breast
  TGI: > 100 µM
EKVX NSCLC
  TGI: > 100 µM
HT29 colon
  TGI: > 100 µM
SR leukemia
  TGI: > 100 µM
OVCAR-8 ovarian
  TGI: > 100 µM
NCI-H522 lung
  TGI: > 100 µM
786-0 renal
  TGI: > 100 µM
NCI-H460 lung
  TGI: > 100 µM

## CCN(CC)CC(O)C1CCC(c2ccccc2)CC1 (stereo unspecified)
A549 NSCLC
  TGI: > 100 µM
MCF7 breast
  TGI: 84.6 µM
EKVX NSCLC
  TGI: > 100 µM
HT29 colon
  TGI: 47.7 µM
OVCAR-8 ovarian
  TGI: 59.7 µM
HCC-2998 colon
  TGI: 11.5 µM
NCI-H522 lung
  TGI: 43.1 µM
786-0 renal
  TGI: 47.6 µM
NCI-H460 lung
  TGI: 85.5 µM

## COC(=O)c1ccc(C2SCC(=O)N2NC(=O)C(O)c2ccccc2)cc1 (stereo unspecified)
A549 NSCLC
  GI50: > 100 µM
  TGI: > 100 µM
MCF7 breast
  GI50: > 100 µM
  TGI: > 100 µM
EKVX NSCLC
  GI50: > 100 µM
  TGI: > 100 µM
HT29 colon
  GI50: > 100 µM
  TGI: > 100 µM
OVCAR-8 ovarian
  GI50: > 100 µM
  TGI: > 100 µM
HCC-2998 colon
  GI50: > 100 µM
  TGI: > 100 µM
NCI-H522 lung
  GI50: > 100 µM
  TGI: > 100 µM
786-0 renal
  GI50: > 100 µM
  TGI: > 100 µM
NCI-H460 lung
  GI50: > 100 µM
  TGI: > 100 µM

## CC/C=C\C/C=C\C[C@H]1C/C=C2/C(=O)C=C[C@H]2C/C=C\CCC(=O)O1
A549 NSCLC
  GI50: 3.96 µM
  TGI: 12.2 µM
MCF7 breast
  GI50: 0.824 µM
  TGI: 11.8 µM
EKVX NSCLC
  GI50: 3.81 µM
  TGI: > 14.3 µM
HT29 colon
  GI50: 2.55 µM
  TGI: 6.49 µM
OVCAR-8 ovarian
  GI50: 4.73 µM
  TGI: > 14.3 µM
HCC-2998 colon
  GI50: 2.77 µM
  TGI: 5.37 µM
NCI-H522 lung
  GI50: 1.83 µM
  TGI: 5.32 µM
786-0 renal
  GI50: 3.13 µM
  TGI: 7.45 µM
NCI-H460 lung
  GI50: 3.1 µM
  TGI: 7.96 µM

## CC1=CC2C(C(C)C)CC1C1C(=O)OC(=O)C21 (stereo unspecified)
A549 NSCLC
  TGI: > 100 µM
MCF7 breast
  TGI: > 100 µM
EKVX NSCLC
  TGI: > 100 µM
HT29 colon
  TGI: > 100 µM
OVCAR-8 ovarian
  TGI: > 100 µM
HCC-2998 colon
  TGI: > 100 µM
NCI-H522 lung
  TGI: > 100 µM
786-0 renal
  TGI: > 100 µM
NCI-H460 lung
  TGI: > 100 µM

## CCc1ccc(Nc2cc(C)nc3nc(C)nn23)cc1
A549 NSCLC
  GI50: 45.4 µM
  TGI: > 100 µM
MCF7 breast
  GI50: 36.7 µM
  TGI: > 100 µM
HT29 colon
  GI50: 39.8 µM
  TGI: > 100 µM
SR leukemia
  GI50: 53.1 µM
  TGI: > 100 µM
OVCAR-8 ovarian
  GI50: 79.8 µM
  TGI: > 100 µM
HCC-2998 colon
  GI50: > 100 µM
  TGI: > 100 µM
NCI-H522 lung
  GI50: 42.3 µM
  TGI: > 100 µM
786-0 renal
  GI50: > 100 µM
  TGI: > 100 µM
NCI-H460 lung
  GI50: 71.1 µM
  TGI: > 100 µM

## O=C1c2ccccc2C(=O)c2c1ccc1c2OCO1
A549 NSCLC
  TGI: > 100 µM
MCF7 breast
  TGI: > 100 µM
EKVX NSCLC
  TGI: > 100 µM
HT29 colon
  TGI: > 100 µM
SR leukemia
  TGI: > 100 µM
OVCAR-8 ovarian
  TGI: > 100 µM
HCC-2998 colon
  TGI: > 100 µM
NCI-H522 lung
  TGI: > 100 µM
786-0 renal
  TGI: > 100 µM

## CC(=O)c1ccc(NCN2C(=O)c3ccccc3C2=O)cc1
A549 NSCLC
  TGI: > 100 µM
MCF7 breast
  TGI: > 100 µM
EKVX NSCLC
  TGI: > 100 µM
HT29 colon
  TGI: > 100 µM
OVCAR-8 ovarian
  TGI: > 100 µM
HCC-2998 colon
  TGI: > 100 µM
NCI-H522 lung
  TGI: > 100 µM
786-0 renal
  TGI: > 100 µM
NCI-H460 lung
  TGI: > 100 µM

## CN1CCCCC1CCN1c2ccccc2Sc2ccc(S(C)=O)cc21 (stereo unspecified)
A549 NSCLC
  TGI: > 100 µM
MCF7 breast
  TGI: > 100 µM
EKVX NSCLC
  TGI: > 100 µM
HT29 colon
  TGI: > 100 µM
SR leukemia
  TGI: > 100 µM
OVCAR-8 ovarian
  TGI: > 100 µM
NCI-H522 lung
  TGI: > 100 µM
786-0 renal
  TGI: > 100 µM
NCI-H460 lung
  TGI: > 100 µM

## Cc1nc2cc(N)c(Cl)cc2[nH]1
A549 NSCLC
  TGI: > 100 µM
MCF7 breast
  TGI: > 100 µM
EKVX NSCLC
  TGI: > 100 µM
HT29 colon
  TGI: > 100 µM
SR leukemia
  TGI: > 100 µM
OVCAR-8 ovarian
  TGI: > 100 µM
NCI-H522 lung
  TGI: > 100 µM
786-0 renal
  TGI: > 100 µM
NCI-H460 lung
  TGI: > 100 µM

## CN1CCCN(C(c2ccccc2)c2ccc(Br)cc2)CC1 (stereo unspecified)
A549 NSCLC
  GI50: 10.9 µM
  TGI: 25.6 µM
MCF7 breast
  GI50: 2.63 µM
  TGI: 10 µM
EKVX NSCLC
  GI50: 4.94 µM
  TGI: 19.6 µM
HT29 colon
  GI50: 2.92 µM
  TGI: 13.1 µM
OVCAR-8 ovarian
  GI50: 6.5 µM
  TGI: 21 µM
HCC-2998 colon
  GI50: 4.55 µM
  TGI: 16 µM
NCI-H522 lung
  GI50: 3.62 µM
  TGI: 13.9 µM
786-0 renal
  GI50: 3.94 µM
  TGI: 14 µM
NCI-H460 lung
  GI50: 6.55 µM
  TGI: 19 µM

## O=C(O)/C=C\C(=O)Nc1ccc2c(c1)C(=O)c1cc(F)ccc1-2
A549 NSCLC
  TGI: > 100 µM
MCF7 breast
  TGI: > 100 µM
EKVX NSCLC
  TGI: > 100 µM
HT29 colon
  TGI: > 100 µM
SR leukemia
  TGI: > 100 µM
OVCAR-8 ovarian
  TGI: > 100 µM
NCI-H522 lung
  TGI: > 100 µM
786-0 renal
  TGI: > 100 µM
NCI-H460 lung
  TGI: > 100 µM

## COc1cc2c3c(c4c5ccccc5[nH]c4c2c(OC)c1OC)C(=O)N(CCN1CCCCC1)C3=O
A549 NSCLC
  GI50: 0.611 µM
  TGI: 2.3 µM
MCF7 breast
  GI50: 0.734 µM
  TGI: 3.09 µM
EKVX NSCLC
  GI50: 1.5 µM
  TGI: 3.42 µM
HT29 colon
  GI50: 0.417 µM
  TGI: 1.88 µM
OVCAR-8 ovarian
  GI50: 0.487 µM
  TGI: 2.36 µM
HCC-2998 colon
  GI50: 1.32 µM
  TGI: 3.45 µM
NCI-H522 lung
  GI50: 0.794 µM
  TGI: 2.76 µM
786-0 renal
  GI50: 1.27 µM
  TGI: 2.87 µM
NCI-H460 lung
  GI50: 0.654 µM
  TGI: 2.1 µM

## O=C1C(Cl)=C(Nc2cccc(O)c2)C(=O)N1c1cccc(Cl)c1Cl
A549 NSCLC
  GI50: 15 µM
  TGI: 45.9 µM
MCF7 breast
  GI50: 13.7 µM
  TGI: 42.7 µM
EKVX NSCLC
  GI50: 49.6 µM
  TGI: > 100 µM
HT29 colon
  GI50: 18.5 µM
  TGI: 58.3 µM
SR leukemia
  GI50: 0.57 µM
  TGI: 10.3 µM
OVCAR-8 ovarian
  GI50: 15.1 µM
  TGI: 30.4 µM
NCI-H522 lung
  GI50: 12.4 µM
  TGI: 27 µM
786-0 renal
  GI50: 18.2 µM
  TGI: 63.2 µM
NCI-H460 lung
  GI50: 14.8 µM
  TGI: 51.5 µM

## Cc1nn(-c2ccc(Br)cc2)c(C)c1CC(=O)c1cc(O)ccc1O
A549 NSCLC
  GI50: 10.5 µM
  TGI: 20.7 µM
MCF7 breast
  GI50: 6.27 µM
  TGI: 18.8 µM
EKVX NSCLC
  GI50: 21.3 µM
  TGI: > 50 µM
HT29 colon
  GI50: 13.2 µM
  TGI: 36.7 µM
SR leukemia
  GI50: 0.911 µM
  TGI: > 50 µM
OVCAR-8 ovarian
  GI50: 8.09 µM
  TGI: 23.2 µM
NCI-H522 lung
  GI50: 16 µM
  TGI: > 50 µM
786-0 renal
  GI50: 20.5 µM
  TGI: > 50 µM
NCI-H460 lung
  GI50: 8.34 µM
  TGI: 19.3 µM

## O=C(CCl)Nc1ccc2c(c1)C(=O)c1ccc(NC(=O)CCl)cc1C2=O
A549 NSCLC
  GI50: 2.79 µM
  TGI: > 100 µM
MCF7 breast
  GI50: 0.194 µM
  TGI: 0.79 µM
HT29 colon
  GI50: 0.314 µM
  TGI: 4.21 µM
SR leukemia
  GI50: 0.0959 µM
  TGI: 1.98 µM
OVCAR-8 ovarian
  GI50: 0.439 µM
  TGI: > 100 µM
HCC-2998 colon
  GI50: 1.77 µM
  TGI: 3.79 µM
NCI-H522 lung
  GI50: 0.194 µM
  TGI: 0.57 µM
786-0 renal
  GI50: 0.193 µM
  TGI: 0.537 µM
NCI-H460 lung
  GI50: 0.387 µM
  TGI: 1.53 µM
